Results taken from patent US11713309B2, “Solid forms of Cerdulatinib” (Alexion Pharmaceuticals, Inc., priority 2018, dated 2023).
Values after ≈ are worked out from the molar mass of the structure shown. Where a name gives a salt, the structure may show the parent alone.

Experiments:
Type in all cases: physicochemical
[1] = Kinetic solubility in FaSSIF; conditions: for Solubility (mg/mL) 1 h / Solubility (mg/mL) 2 h / Solubility (mg/mL) 4 h / Solubility (mg/mL) 24 h: 37° C.; for Solubility (mg/mL) 1 h: drug loading ~10 mg/mL as freebase; for pH 1 h / pH 2 h / pH 4 h / pH 24 h: supernatant, FaSSIF (native pH 6.5)
Procedure: (§1) Kinetic solubility testing was conducted as follows: About 40-55 mg material was weighed into a 5-mL EP pipe. 4 mL of water/bio-relevant media (SGF, FaSSIF, or FeSSIF) was added into the corresponding sample pipe (drug loading: ˜10 mg/mL calculated as freebase). The pipes were capped tightly and the material was verified to be in contact with the media. The sample vials were placed on a roller and start rolling at 37° C. (rate: 25 r/min). Samples were taken at 1, 2, 4, 24 h. For each time point, 1.0 mL of suspension was transferred into a 2-mL centrifuge tube and the samples were centrifuged. The supernatant was filtered via 0.45 μm PTFE membrane and solubility and pH were measured. An XRPD test on residual solids was conducted.

[2] = Kinetic solubility in water; conditions: 37° C.; for pH of supernatant: water (native pH 7.6); for Final Form of residual solids (XRPD) / Kinetic solubility: water
Procedure: as §1

[3] = Kinetic solubility in FeSSIF; conditions: for Solubility (mg/mL) 1 h / Solubility (mg/mL) 2 h / Solubility (mg/mL) 4 h / Solubility (mg/mL) 24 h: 37° C.; for Solubility (mg/mL) 1 h: drug loading ~10 mg/mL as freebase; for pH 1 h / pH 2 h / pH 4 h / pH 24 h: supernatant
Procedure: as §1

[4] = Kinetic solubility in SGF; conditions: for Solubility (mg/mL) 1 h / Solubility (mg/mL) 2 h / Solubility (mg/mL) 4 h / Solubility (mg/mL) 24 h: 37° C.; for Solubility (mg/mL) 1 h: drug loading ~10 mg/mL as freebase; for pH 1 h / pH 2 h / pH 4 h / pH 24 h: supernatant, SGF (native pH 1.8)
Procedure: as §1

[5] = 24 h, listed as Mesylate Type A

CCS(=O)(=O)N1CCN(c2ccc(Nc3ncc(C(N)=O)c(NC4CC4)n3)cc2)CC1 [Compound I esylate Type A, 4-(cyclopropylamino)-2-(4-(4-(ethylsulfonyl)piperazin-1-yl)phenylamino)pyrimidine-5-carboxamide]
Solubility (mg/mL) 1 h ([1]; FaSSIF, 1 h, listed as Esylate Type A): 0.015 mg/mL (≈ 33.7 µM)
Solubility (mg/mL) 2 h ([1]; FaSSIF, 2 h, listed as Esylate Type A): 0.012 mg/mL (≈ 26.9 µM)
Solubility (mg/mL) 4 h ([1]; FaSSIF, 4 h, listed as Esylate Type A): 0.024 mg/mL (≈ 53.9 µM)
Solubility (mg/mL) 24 h ([1]; FaSSIF, 24 h, listed as Esylate Type A): 0.0040 mg/mL (≈ 8.98 µM)
Final Form ([1]; XRPD of residual solids, FaSSIF, 1 h, 2 h, 4 h, 24 h): Freebase Form II
pH 1 h ([1]; 1 h, listed as Esylate Type A): 5.2
pH 2 h ([1]; 2 h, listed as Esylate Type A): 5.0
pH 4 h ([1]; 4 h, listed as Esylate Type A): 4.3
pH 24 h ([1]; 24 h, listed as Esylate Type A): 3.8
pH of supernatant ([2]; 1 h, listed as Esylate Type A): 2.3
pH of supernatant ([2]; 2 h, listed as Esylate Type A): 2.0
pH of supernatant ([2]; 4 h, listed as Esylate Type A): 2.2
pH of supernatant ([2]; 24 h, listed as Esylate Type A): 2.1
Final Form of residual solids (XRPD) ([2]; 1 h, 2 h, 4 h, 24 h, listed as Esylate Type A): Freebase Form II
Kinetic solubility ([2]; 1 h, listed as Esylate Type A): 1700 µg/mL
Kinetic solubility ([2]; 2 h, listed as Esylate Type A): 1500 µg/mL
Kinetic solubility ([2]; 4 h, listed as Esylate Type A): 1400 µg/mL
Kinetic solubility ([2]; 24 h, listed as Esylate Type A): 1300 µg/mL
Solubility (mg/mL) 1 h ([3]; 1 h, listed as Esylate Type A): 0.060 mg/mL (≈ 135 µM)
Solubility (mg/mL) 2 h ([3]; 2 h, listed as Esylate Type A): 0.027 mg/mL (≈ 60.6 µM)
Solubility (mg/mL) 4 h ([3]; 4 h, listed as Esylate Type A): 0.014 mg/mL (≈ 31.4 µM)
Solubility (mg/mL) 24 h ([3]; 24 h, listed as Esylate Type A): 0.011 mg/mL (≈ 24.7 µM)
Final Form 2 h, 4 h, 24 h ([3]; XRPD of residual solids, 2 h, 4 h, 24 h): Freebase Form II
pH 1 h ([3]; 1 h, listed as Esylate Type A): 4.8
pH 2 h ([3]; 2 h, listed as Esylate Type A): 4.7
pH 4 h ([3]; 4 h, listed as Esylate Type A): 4.7
pH 24 h ([3]; 24 h, listed as Esylate Type A): 4.4
Solubility (mg/mL) 1 h ([4]; SGF, 1 h, listed as Esylate Type A): 0.092 mg/mL (≈ 206 µM)
Solubility (mg/mL) 2 h ([4]; SGF, 2 h, listed as Esylate Type A): 0.10 mg/mL (≈ 224 µM)
Solubility (mg/mL) 4 h ([4]; SGF, 4 h, listed as Esylate Type A): 0.087 mg/mL (≈ 195 µM)
Solubility (mg/mL) 24 h ([4]; SGF, 24 h, listed as Esylate Type A): 0.083 mg/mL (≈ 186 µM)
Final Form ([4]; XRPD of residual solids, SGF, 1 h, 2 h, 4 h, 24 h): HC1 salt Form I
pH 1 h ([4]; 1 h, listed as Esylate Type A): 2.1
pH 2 h ([4]; 2 h, listed as Esylate Type A): 1.9
pH 4 h ([4]; 4 h, listed as Esylate Type A): 2.1
pH 24 h ([4]; 24 h, listed as Esylate Type A): 1.9

CCS(=O)(=O)N1CCN(c2ccc(Nc3ncc(C(N)=O)c(NC4CC4)n3)cc2)CC1 [Compound I mesylate Type A, 4-(cyclopropylamino)-2-(4-(4-(ethylsulfonyl)piperazin-1-yl)phenylamino)pyrimidine-5-carboxamide]
Solubility (mg/mL) 1 h ([1]; FaSSIF, 1 h, listed as Mesylate Type A): 0.062 mg/mL
Solubility (mg/mL) 2 h ([1]; FaSSIF, 2 h, listed as Mesylate Type A): 0.055 mg/mL
Solubility (mg/mL) 4 h ([1]; FaSSIF, 4 h, listed as Mesylate Type A): 0.039 mg/mL
Solubility (mg/mL) 24 h ([1]; FaSSIF, 24 h, listed as Mesylate Type A): 0.020 mg/mL
pH 1 h ([1]; 1 h, listed as Mesylate Type A): 4.1
pH 2 h ([1]; 2 h, listed as Mesylate Type A): 3.7
pH 4 h ([1]; 4 h, listed as Mesylate Type A): 3.6
pH 24 h [1, 5]: 4.0
pH of supernatant ([2]; 1 h, listed as Mesylate Type A): 1.9
pH of supernatant ([2]; 2 h, listed as Mesylate Type A): 1.9
pH of supernatant ([2]; 4 h, listed as Mesylate Type A): 2.2
pH of supernatant [2, 5]: 2.0
Final Form of residual solids (XRPD) ([2]; 1 h, 2 h, 4 h, 24 h, listed as Mesylate Type A): Freebase Form II
Kinetic solubility ([2]; 1 h, listed as Mesylate Type A): 1400 µg/mL
Kinetic solubility ([2]; 2 h, listed as Mesylate Type A): 1300 µg/mL
Kinetic solubility ([2]; 4 h, listed as Mesylate Type A): 1300 µg/mL
Kinetic solubility [2, 5]: 1300 µg/mL
Solubility (mg/mL) 1 h ([3]; 1 h, listed as Mesylate Type A): 0.023 mg/mL
Solubility (mg/mL) 2 h ([3]; 2 h, listed as Mesylate Type A): 0.020 mg/mL
Solubility (mg/mL) 4 h ([3]; 4 h, listed as Mesylate Type A): 0.0084 mg/mL
Solubility (mg/mL) 24 h [3, 5]: 0.0083 mg/mL
Final Form ([3]; XRPD of residual solids, 1 h, 2 h, 4 h, 24 h (merged cell), listed as Mesylate Type A): Freebase Form II
pH 1 h ([3]; 1 h, listed as Mesylate Type A): 4.7
pH 2 h ([3]; 2 h, listed as Mesylate Type A): 4.5
pH 4 h ([3]; 4 h, listed as Mesylate Type A): 4.6
pH 24 h [3, 5]: 4.6
Solubility (mg/mL) 1 h ([4]; SGF, 1 h, listed as Mesylate Type A): 0.081 mg/mL
Solubility (mg/mL) 2 h ([4]; SGF, 2 h, listed as Mesylate Type A): 0.096 mg/mL
Solubility (mg/mL) 4 h ([4]; SGF, 4 h, listed as Mesylate Type A): 0.080 mg/mL
Solubility (mg/mL) 24 h ([4]; SGF, 24 h, listed as Mesylate Type A): 0.076 mg/mL
pH 1 h ([4]; 1 h, listed as Mesylate Type A): 1.9
pH 2 h ([4]; 2 h, listed as Mesylate Type A): 2.0
pH 4 h ([4]; 4 h, listed as Mesylate Type A): 2.0
pH 24 h [4, 5]: 1.9
